Measurements: patent US20090317452A1, “Transdermal patch” (Sekisui Chemical Co. td., priority 2006, published 2009)

Assays:
Type in all cases: physicochemical
[1] = Solvency of DMAE in alcohol/additive; settings: 25° C.
Protocol: When a crystal of DMAE was precipitated […], and when a crystal of DMAE was not precipitated, the solvency was evaluated to be “poor”.

[2] = Residual rate of the active substance in monomer solution (HPLC); settings: for Residual Rate (% by weight) after 7 Days: 25° C.
[3] = Solubility of DMAE at 25° C. in alcohol/additive
Source text: When the content of the saturated aliphatic monohydric alcohol is small in the plaster layer described above, the solvency and diffusibility of the DMAEs in the plaster layer decrease, and the transdermal absorbency of the DMAEs becomes insufficient. When the content of the saturated aliphatic monohydric alcohol is large in the plaster layer, the acrylic adhesive in the plaster layer becomes excessively plasticized, leading to an adhesive transfer when the transdermal patch is removed away from the skin. Therefore, the content of the saturated aliphatic monohydric alcohol in the plaster layer is limited to 1 to 30% by weight, and preferably 5 to 30%.
An excess amount of DMAEs is added to the saturated aliphatic monohydric alcohol, a weight W0 (g) of the alcohol being measured in advance; a solution temperature is set at 50° C. to keep the warmth for one hour or more than one hour; and then a shaking operation is continued in a water bath of 25° C. for 10 minutes by means of supersonic waves to prepare a DMAEs saturated solution. Next, the DMAEs saturated solution, after being arranged to stand still for 24 hours at 25° C., is centrifuged at a speed of 3000 r.p.m., and a certain amount of clear supernatant solution of the DMAEs saturated solution is collected. Then, such collected clear supernatant solution is subjected to HPLC determination to determine a weight W1 (g) of the DMAEs dissolved in the DMAEs saturated solution, and solubility of the DMAEs with respect to the saturated aliphatic monohydric alcohol is figured out by using the following equation (1).
Solubility of DMAEs (g)=(W1/W0)×100 Equation (1)

[4] = Solvency of the active substance in monomers (visual inspection); parameters: key: Excellent: The active substance was not found to have been precipitated in the solution of active substance both immediately after the preparation and after the preservation for 7 days.; Good: The active substance was found to have been precipitated in the solution of active substance immediately after the preparation, but the active substance was not found to have been precipitated in the solution of active substance after the preservation for 7 days.; Poor: The active substance was found to have been precipitated in the solution of active substance both immediately after the preparation and after the preservation for 7 days; settings: 25° C., 7 days

## COc1ccc(OC)c(C(O)CN)c1 (stereo not shown) [DMAE, 2-amino-1-(2′,5′-dimethoxyphenyl)ethanol]
[1]; 50 parts DMAE in 950 parts Butylene Glycol
  Solvency of DMAE: Poor
[1]; 50 parts DMAE in 950 parts Diethyl Sebacate
  Solvency of DMAE: Excellent
[1]; 50 parts DMAE in 950 parts Hexyldecanol
  Solvency of DMAE: Excellent
[1]; 50 parts DMAE in 950 parts Isostearic Acid
  Solvency of DMAE: Poor
[1]; 50 parts DMAE in 950 parts Isostearyl Alcohol
  Solvency of DMAE: Excellent
[1]; 50 parts DMAE in 950 parts Lauryl Alcohol
  Solvency of DMAE: Excellent
[1]; 50 parts DMAE in 950 parts Liquid Paraffin
  Solvency of DMAE: Excellent
[1]; 50 parts DMAE in 950 parts Medium-chain Triglyceride
  Solvency of DMAE: Excellent
[1]; 50 parts DMAE in 950 parts Monoethanolamine
  Solvency of DMAE: Poor
[1]; 50 parts DMAE in 950 parts Octanediol
  Solvency of DMAE: Poor
[1]; 50 parts DMAE in 950 parts Octyldodecanol
  Solvency of DMAE: Excellent
[1]; 50 parts DMAE in 950 parts Oleic Acid
  Solvency of DMAE: Excellent
[1]; 50 parts DMAE in 950 parts Oleyl Alcohol
  Solvency of DMAE: Excellent
[1]; 50 parts DMAE in 950 parts Polyoxyethylene (2) Lauryl Ether
  Solvency of DMAE: Excellent
[1]; 50 parts DMAE in 950 parts Propylene Glycol
  Solvency of DMAE: Poor
[1]; 50 parts DMAE in 950 parts Squalane
  Solvency of DMAE: Excellent
[1]; 50 parts DMAE in 950 parts Triacetin
  Solvency of DMAE: Poor
[2]; in 1-Vinyl-2-Pyrrolidone
  Residual Rate (% by weight) Immediately after Preparation: 100 % by weight
  Residual Rate (% by weight) after 7 Days: 100 % by weight
[2]; in 2-Ethylhexyl Acrylate
  Residual Rate (% by weight) Immediately after Preparation: 39 % by weight
  Residual Rate (% by weight) after 7 Days: 11 % by weight
[2]; in 2-Ethylhexyl Methacrylate
  Residual Rate (% by weight) Immediately after Preparation: 99 % by weight
  Residual Rate (% by weight) after 7 Days: 99 % by weight
[2]; in Acrylic Acid
  Residual Rate (% by weight) Immediately after Preparation: 99 % by weight
  Residual Rate (% by weight) after 7 Days: 97 % by weight
[2]; in Butyl Acrylate
  Residual Rate (% by weight) Immediately after Preparation: 27 % by weight
[2]; in Butyl Methacrylate
  Residual Rate (% by weight) Immediately after Preparation: 98 % by weight
  Residual Rate (% by weight) after 7 Days: 98 % by weight
[2]; in Dodecyl Methacrylate
  Residual Rate (% by weight) Immediately after Preparation: 100 % by weight
  Residual Rate (% by weight) after 7 Days: 99 % by weight
[3]; g DMAE per 100 g Diethyl Sebacate at 25° C.
  Solubility of DMAE: 0.87 g
[3]; g DMAE per 100 g Hexyldecanol at 25° C.
  Solubility of DMAE: 1.4 g
[3]; g DMAE per 100 g Isostearyl Alcohol at 25° C.
  Solubility of DMAE: 1.8 g
[3]; g DMAE per 100 g Lauryl Alcohol at 25° C.
  Solubility of DMAE: 2.6 g
[3]; g DMAE per 100 g Liquid Paraffin at 25° C.
  Solubility of DMAE: 0.02 g
[3]; g DMAE per 100 g Medium-chain Triglyceride at 25° C.
  Solubility of DMAE: 0.31 g
[3]; g DMAE per 100 g Octyldodecanol at 25° C.
  Solubility of DMAE: 0.84 g
[3]; g DMAE per 100 g Oleic Acid at 25° C.
  Solubility of DMAE: 3.7 g
[3]; g DMAE per 100 g Oleyl Alcohol at 25° C.
  Solubility of DMAE: 2.5 g
[3]; g DMAE per 100 g Polyoxyethylene (2) Lauryl Ether at 25° C.
  Solubility of DMAE: 3.7 g
[3]; g DMAE per 100 g Squalane at 25° C.
  Solubility of DMAE: 0.01 g
[4]; 3 parts active substance in 100 parts 1-Vinyl-2-Pyrrolidone
  Solvency of the active substance: Poor
[4]; 3 parts active substance in 100 parts 2-Ethylhexyl Acrylate
  Solvency of the active substance: Poor
[4]; 3 parts active substance in 100 parts 2-Ethylhexyl Methacrylate
  Solvency of the active substance: Poor
[4]; 3 parts active substance in 100 parts Acrylic Acid
  Solvency of the active substance: Excellent
[4]; 3 parts active substance in 100 parts Butyl Acrylate
  Solvency of the active substance: Good
[4]; 3 parts active substance in 100 parts Butyl Methacrylate
  Solvency of the active substance: Poor
[4]; 3 parts active substance in 100 parts Dodecyl Methacrylate
  Solvency of the active substance: Poor
[4]; 3 parts active substance in 100 parts Ethyl Acrylate
  Solvency of the active substance: Excellent
